In article PMC7823583, “Discovery of Potent Dual EGFR/HER2 Inhibitors Based on Thiophene Scaffold Targeting H1299 Lung Cancer Cell Line” (Pharmaceuticals, 2020):

Tests used:
NSCLC cell line H1299 = test: In vitro cytotoxic activity against H1299, sulfo-rhodamine B (SRB) assay; conditions: Homo sapiens, NCI-H1299, 48 h, read-out: IC50 against H1299
Method: The potential cytotoxic activity of the target compounds on H1299 lung cancer cell line was tested using sulfo-rhodamine B (SRB) assay according to Skehan method [20]. Single cells were plated in 96-multiwell plates for 24 h before treatment with the compounds. A single concentration of the tested compounds was added to the cell monolayer. Monolayer cell was incubated with the compounds for 48 h at 37 °C and in atmosphere of 5% CO2. After 48 h, cell was fixed, washed and stained with Sulforhodamine-B stain. Acetic acid was then used to wash excess stain and attached stain was recovered with Tris ethylenediaminetetraacetic acid (EDTA) buffer. Color intensity was measured in an enzyme-linked immunosorbent assay (ELISA).

HER2 = HER2 (Homo sapiens, UniProt P04626); test: HER2 kinase inhibitory assay (Kinase-Glo Plus luminescence kinase assay); format: biochemical; conditions: read-out: IC50 against HER2
Sequence of HER2 (P04626 23-1255): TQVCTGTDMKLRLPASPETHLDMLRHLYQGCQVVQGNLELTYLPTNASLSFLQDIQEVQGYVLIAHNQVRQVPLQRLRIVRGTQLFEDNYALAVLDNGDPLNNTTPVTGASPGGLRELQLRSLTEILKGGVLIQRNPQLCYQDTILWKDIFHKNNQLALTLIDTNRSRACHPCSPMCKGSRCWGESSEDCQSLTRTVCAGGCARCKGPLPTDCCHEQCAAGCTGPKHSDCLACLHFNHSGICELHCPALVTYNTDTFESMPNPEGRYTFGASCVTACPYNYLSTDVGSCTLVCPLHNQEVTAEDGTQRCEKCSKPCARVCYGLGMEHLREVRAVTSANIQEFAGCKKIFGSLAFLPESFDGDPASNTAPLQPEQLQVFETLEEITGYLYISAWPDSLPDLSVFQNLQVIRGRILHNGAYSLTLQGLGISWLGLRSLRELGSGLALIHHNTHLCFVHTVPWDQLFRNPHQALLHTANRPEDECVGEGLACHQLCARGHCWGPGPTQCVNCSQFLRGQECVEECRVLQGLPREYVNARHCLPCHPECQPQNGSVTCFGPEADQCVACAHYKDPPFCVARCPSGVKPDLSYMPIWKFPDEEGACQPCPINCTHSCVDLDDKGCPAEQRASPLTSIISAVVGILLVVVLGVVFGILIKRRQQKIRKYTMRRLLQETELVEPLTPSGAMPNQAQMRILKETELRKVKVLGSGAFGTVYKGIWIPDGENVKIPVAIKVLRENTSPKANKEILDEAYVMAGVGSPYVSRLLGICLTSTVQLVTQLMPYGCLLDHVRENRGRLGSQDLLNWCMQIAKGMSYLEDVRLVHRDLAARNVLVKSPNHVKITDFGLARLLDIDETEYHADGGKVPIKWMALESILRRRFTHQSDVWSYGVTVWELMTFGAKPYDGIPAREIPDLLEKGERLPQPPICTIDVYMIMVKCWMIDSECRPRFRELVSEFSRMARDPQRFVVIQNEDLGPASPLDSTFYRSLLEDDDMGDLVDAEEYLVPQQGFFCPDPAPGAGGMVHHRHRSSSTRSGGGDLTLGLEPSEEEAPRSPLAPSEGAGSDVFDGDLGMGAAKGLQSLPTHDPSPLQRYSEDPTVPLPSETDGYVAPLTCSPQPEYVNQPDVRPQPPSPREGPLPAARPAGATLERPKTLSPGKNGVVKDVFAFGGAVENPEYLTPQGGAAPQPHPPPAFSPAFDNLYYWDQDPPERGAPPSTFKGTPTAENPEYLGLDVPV

EGFR = EGFR (Homo sapiens, UniProt P00533); conditions: earlier study of the group; read-out: IC50 against EGFR; cited from earlier work
Sequence of EGFR (P00533 25-1210): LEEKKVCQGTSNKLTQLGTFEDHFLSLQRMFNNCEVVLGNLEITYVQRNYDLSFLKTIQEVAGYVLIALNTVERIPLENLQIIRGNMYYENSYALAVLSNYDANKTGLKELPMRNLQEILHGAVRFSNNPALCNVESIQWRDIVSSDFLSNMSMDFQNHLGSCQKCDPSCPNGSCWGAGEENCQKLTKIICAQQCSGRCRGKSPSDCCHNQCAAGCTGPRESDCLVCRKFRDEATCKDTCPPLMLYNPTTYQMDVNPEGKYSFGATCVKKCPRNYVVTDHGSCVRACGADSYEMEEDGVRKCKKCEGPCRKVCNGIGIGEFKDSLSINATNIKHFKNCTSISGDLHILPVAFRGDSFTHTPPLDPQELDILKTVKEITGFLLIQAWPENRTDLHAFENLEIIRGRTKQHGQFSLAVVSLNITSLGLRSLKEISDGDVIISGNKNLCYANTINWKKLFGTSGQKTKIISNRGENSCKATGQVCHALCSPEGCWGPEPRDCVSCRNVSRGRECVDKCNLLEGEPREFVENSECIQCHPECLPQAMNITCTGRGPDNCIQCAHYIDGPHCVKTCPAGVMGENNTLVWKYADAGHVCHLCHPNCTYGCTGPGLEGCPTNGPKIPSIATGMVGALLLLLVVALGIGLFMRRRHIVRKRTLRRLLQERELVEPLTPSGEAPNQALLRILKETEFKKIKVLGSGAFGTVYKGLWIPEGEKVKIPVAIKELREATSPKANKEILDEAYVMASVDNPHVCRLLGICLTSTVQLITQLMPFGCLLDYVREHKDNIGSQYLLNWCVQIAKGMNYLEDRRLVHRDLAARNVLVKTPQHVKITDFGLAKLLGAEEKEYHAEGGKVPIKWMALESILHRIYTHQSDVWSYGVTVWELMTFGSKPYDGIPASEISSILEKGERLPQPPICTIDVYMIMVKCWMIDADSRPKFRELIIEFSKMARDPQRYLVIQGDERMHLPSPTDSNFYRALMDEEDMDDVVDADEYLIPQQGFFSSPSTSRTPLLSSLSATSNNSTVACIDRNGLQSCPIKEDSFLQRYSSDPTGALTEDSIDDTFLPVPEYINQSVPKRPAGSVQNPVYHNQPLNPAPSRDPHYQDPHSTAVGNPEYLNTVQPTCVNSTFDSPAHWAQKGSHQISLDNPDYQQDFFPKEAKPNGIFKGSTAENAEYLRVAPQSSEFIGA

Which IC50 (NSCLC cell line H1299) does the source give for `Oc1ccccc1C=Nc1cccc(Nc2nnnc3sc4c(c23)CCCC4)c1` [Compound 15b, 3-(5,6,7,8-Tetrahydro-7H-cyclohexa[4:5]thieno[2,3-d][1,2,3]triazin-4-ylamino)-N-(2-hydroxybenzylidene)benzene-1,3-diamine] here?
The IC50 was 34 nM.

Which IC50 (HER2) does the source give for `N#Cc1c(NC(=O)CNc2n[nH]c3ncccc23)sc2c1CCCC2` [Compound 21a, 2-(1H-Pyrazolo[3,4-b]pyridin-3-ylamino)-N-(3-cyano4,5,6,7-tetrahydrobenzo[b]thiophen-2-yl)acetamide] here?
Its IC50 is 0.14 nM.

What about the IC50 (NSCLC cell line H1299) of the same compound?
Its IC50 is 12.5 nM.

What does the source list for `Nc1cccc(Nc2nnnc3sc4c(c23)CCCC4)c1` [Compound 13b, 3-(5,6,7,8-Tetrahydro-7H-cyclohexa[4:5]thieno[2,3-d][1,2,3]triazin-4ylamino)benzene-1,3-diamine]?
IC50 (EGFR): ~0.33 nM; IC50 (NSCLC cell line H1299): 25 nM

With `N#Cc1c(NC(=O)CNN=Cc2cccc([N+](=O)[O-])c2)sc2c1CCCC2` [Compound 25a, N-(3-Cyano-4,5,6,7-tetrahydrobenzo[b]thiophen-2-yl)-2-(2-(3-nitrobenzylidene)hydrazinyl)acetamide] as the compound, how does the IC50 (NSCLC cell line H1299) read?
Its IC50 is 18.5 nM.

For `COc1ccc(C=NNCC(=O)Nc2sc3c(c2C#N)CCCC3)cc1` [Compound 25b, N-(3-Cyano-4,5,6,7-tetrahydrobenzo[b]thiophen-2-yl)-2-(2-(4-methoxybenzylidene)hydrazinyl)acetamide], which IC50 (NSCLC cell line H1299) is on record?
The IC50 was 18.5 nM.

With `Oc1ccc(Nc2nnnc3sc4c(c23)CCC4)cc1` [Compound 8, reference compound] as the compound, how does the IC50 (EGFR) read?
Its IC50 is roughly 38 nM.

For `Oc1ccccc1C=Nc1cccc(Nc2nnnc3sc4c(c23)CCC4)c1` [Compound 15a, 3-(5,6-Dihydro-7H-cyclopenta[4:5]thieno[2,3-d][1,2,3]triazin-4-ylamino)-N-(2-hydroxybenzylidene)benzene-1,3-diamine], which IC50 (NSCLC cell line H1299) is on record?
Its IC50 is 32.8 nM.

For `Cc1cc(C)c2c(NCC(=O)Nc3sc4c(c3C#N)CCCC4)n[nH]c2n1` [Compound 21b, N-(3-Cyano-4,5,6,7-tetrahydrobenzo[b]thiophen-2-yl)-2-(4,6-dimethyl-1H-pyrazolo[3,4-b]pyridin-3-ylamino)acetamide], which IC50 (NSCLC cell line H1299) is on record?
Its IC50 is 13.7 nM.

With `C(=Nc1cccc(Nc2nnnc3sc4c(c23)CCC4)c1)c1ccccc1` [Compound 14a, 3-(5,6-Dihydro-7H-cyclopenta[4:5]thieno[2,3-d][1,2,3]triazin-4-ylamino)-N-benzylidenebenzene-1,3-diamine] as the compound, how does the IC50 (NSCLC cell line H1299) read?
The IC50 was 25.7 nM.

Which IC50 (NSCLC cell line H1299) does the source give for `Nc1cccc(Nc2nnnc3sc4c(c23)CCC4)c1` [Compound 13a, 3-(5,6-dihydro-7H-cyclopenta[4:5]thieno[2,3-d][1,2,3]triazin-4-ylamino)benzene-1,3-diamine] here?
Its IC50 is 28.8 nM.

With `O=[N+]([O-])c1cccc(C=Nc2cccc(Nc3nnnc4sc5c(c34)CCCC5)c2)c1` [Compound 17b, 3-(5,6,7,8-Tetrahydro-7H-cyclohexa[4:5]thieno[2,3-d][1,2,3]triazin-4-ylamino)-N-(3-nitrobenzylidene)benzene-1,3-diamine] as the compound, how does the IC50 (NSCLC cell line H1299) read?
Its IC50 is 38.1 nM.

For `N#Cc1c(NC(=O)CNc2onc3ncccc23)sc2c1CCCC2` [Compound 23, N-(3-Cyano-4,5,6,7-tetrahydrobenzo[b]thiophen-2-yl)-2-(isoxazolo[3,4-b]pyridin-3-ylamino)acetamide], which IC50 (NSCLC cell line H1299) is on record?
The IC50 was 18.4 nM.
